Patent US20230097992A1, “BIVALENT EGF FUSION TOXINS” (The Regents of the University of Colorado, a body corporate, priority 2020, published 2023)

Tests used:
[1] = test system: human EGFR-positive HNSCC cell line UMSCC1; experiment: CellTiter-Glo Luminescent Cell Viability Assay, UMSCC1; type: cell-based; details: UMSCC1, read-out: IC50 to HNSCC cell lines (Erlotinib)
Experimental: (§1) FIG. 9 presents the data from in vitro efficacy analysis of the human EGF fusion toxins against human EGFR-positive HNSCC cell lines using CellTiter-Glo® Luminescent Cell Viability Assay (Promega) Y-axis: inhibition rate of the cell viability by determining the number of viable cells based on the quantification of the ATP present. X-axis: plated fusion toxin concentration. Cycloheximide (1.25 mg/mL) was used as a positive control. The negative control contained cells without fusion toxin. Data were from three individual experiments for each HNSCC cell line. Error bars indicate SD.
(§2) Y-axis: inhibition rate of the cell viability by determining the number of viable cells based on the quantification of the ATP present. […] Cycloheximide (1.25 mg/mL) was used as a positive control. […]
(§3) In vitro efficacy analysis of the human EGF fusion toxins (mEGF-IT and bEGF-IT) to the human HNSCC tumor cell lines was performed using CellTiter-Glo® Luminescent Cell Viability Assay (Promega Corporation, Madison, Wis.) as described previously (Zheng et al. (2017), Mol. Oncol. 11, 584-594, which is hereby incorporated by reference in its entirety). This cell viability assay measures the luminescence produced because of ATP production from metabolically active cells. […] The luminescence signals were recorded using BioTek Synergy LX Multi-Mode Reader.
(§4) IC50 was determined using nonlinear regression (curve fit) of Prism. […]

[2] = test system: human EGFR-positive HNSCC cell line UMSCC47; experiment: CellTiter-Glo Luminescent Cell Viability Assay, UMSCC47; type: cell-based; details: read-out: IC50 to HNSCC cell lines (Erlotinib)
Experimental: as §1, §2, §3, §4

[3] = test system: human EGFR-positive HNSCC cell line Vu1365; experiment: CellTiter-Glo Luminescent Cell Viability Assay, Vu1365; type: cell-based; details: read-out: IC50 to HNSCC cell lines (Erlotinib)
Experimental: as §1, §2, §3, §4

[4] = test system: 14 human EGFR-positive HNSCC cell lines; experiment: CellTiter-Glo in vitro efficacy, all examined HNSCC cell lines together; type: cell-based
Experimental: Cycloheximide (1.25 mg/mL) was used as a positive control. […] Data were from three individual experiments for each HNSCC cell line.
In vitro efficacy of the human EGF fusion toxins against HNSCC cell lines were assessed using CellTiter-Glo® Luminescent Cell Viability Assay.

[5] = test system: human EGFR-positive HNSCC cell line HN6; experiment: CellTiter-Glo Luminescent Cell Viability Assay, HN6; type: cell-based; details: HN-6, read-out: IC50 to HNSCC cell lines (Erlotinib)
Experimental: as §1, §2, §3, §4

[6] = test system: human EGFR-positive HNSCC cell line UMSCC22B; experiment: CellTiter-Glo Luminescent Cell Viability Assay, UMSCC22B; type: cell-based; details: read-out: IC50 to HNSCC cell lines (Erlotinib)
Experimental: as §1, §2, §3, §4

NSG mice = experiment: In vivo off-target toxicity in NSG mice
Text: FIGS. 12A-C presents representative images of necropsy results for NSG mice treated with mono-EGF-IT or bi-EGF-IT without tumor cell injection. Mice were euthanized on day 13 after the first injection of the fusion toxins. The images show representative gross changes observed in the ear (FIG. 12A), liver (FIG. 12C) and gastrointestinal tract of a representative NSG mouse treated with mono-EGF-IT compared to a representative NSG mouse treated with bi-EGF-IT.
Mono-EGF-IT (mEGF-IT), bEGF-IT, or DT390 was intraperitoneally injected (IP) starting at day 4 at 50 μg/kg, once daily for 10 consecutive days. […] The injected animals were observed daily for signs and symptoms of illness and scored at least twice weekly based on the parameters as previously reported (Peraino et al. (2013), J. Immunol. Methods 398-399, 33-43, which is hereby incorporated by reference in its entirety; Wang et al., 2015). The animals were humanely euthanized when the score exceeded the limit or the animal lost more than 15% of its pre-injection body weight. In addition, to assess whether the fusion toxins are toxic to the animals, NSG mice injected with the fusion toxins only were also included as control.
The main side effects of targeting EGFR are caused by off-target effects, because EGFR is expressed in many healthy tissues, include skin, liver, and gastrointestinal tract (Widakowich et al., (2007), Oncologist, 12, 1443-1455). […] To further assess these toxic effects, another in vivo toxicity study in non-tumor-bearing mice was performed. NSG mice were treated with mono-EGF-IT or bi-EGF-IT, without tumor cell injection.

[7] = test system: EGFR+ HNSCC cell line, Cal27; experiment: Blocking of anti-human EGFR mAb binding to Cal27 by nonbiotinylated fusion toxin (flow cytometry); details: nonbiotinylated fusion toxin as competitor
Text: FIGS. 3C-D present representative data from analysis of the blocking of anti-human EGFR mAb binding to human EGFR-expressing (EGFR^+) HNSCC Cal27 by mEGF-IT and bEGF-IT using flow cytometry. FIG. 3C presents representative flow cytometry data, and FIG. 3D presents the percentage inhibition of anti-human EGFR mAb binding to Cal27 cells plotted versus the concentration of binding competitor (mono-EGF-IT or bi-EGF-IT). The data are representative of three individual experiments.
The biotinylated EGF fusion toxins also dose-dependently bound to all other examined HNSCC cell lines (FIG. 3, 11, and Table 4). […] One limitation to the flow cytometry binding assay is that the extent of biotinylation should be similar between the constructs. Otherwise, it could be hard to attribute the differences in fluorescence intensities to a change in affinity. To overcome this limitation, a blocking assay using nonbiotinylated mono-EGF-IT or bi-EGF-IT to block the binding of the anti-human EGFR mAb to the EGFR+ HNSCC cell line, Cal27, was performed (Wang et al, 2007, Bioconjug Chem 18: 944-955). […] The 14 examined HNSCC cell lines represent the main HNSCC cell lines used in the research community of the head and neck cancers.

[8] = test system: 14 EGFR+ HNSCC cells lines; experiment: Flow cytometry binding, all 14 EGFR+ HNSCC cell lines together; set-up: species or system human; details: mean over the 14 EGFR+ HNSCC cell lines
[9] = non-tumor-bearing NSG mice, 13 days after the first injection

Compound	IC50 [1] [nM]	IC50 [2] [µM]	IC50 [3] [nM]	in vitro efficacy against the examined HNSCC cell lines [4]	IC50 [5] [nM]	IC50 [6] [nM]	adverse effects observed in treated mice (NSG mice; mice of the efficacy studies)	general condition and skin (NSG mice; non-tumor-bearing NSG mice)	necropsy, gastrointestinal tract (NSG mice; [9])	necropsy, liver (NSG mice; [9])	blocking of anti-human EGFR mAb binding to Cal27 (result in words) [7]	Kd [8] [nM]
C#Cc1cccc(Nc2ncnc3cc(OCCOC)c(OCCOC)cc23)c1 [Erlotinib]	2460	4.12	1540	effective in vitro against all 14 examined HNSCC tumor cell lines	940	1740	–	–	–	–	–	–
Bi-EGF IT: DT390 joined by G4S to two human EGF domains linked by (G4S)3, C-terminal 6×His tag; SEQ ID NO: 10	–	–	–	–	–	–	these adverse effects were not observed	but not bi-EGF-IT, were again generally unhealthy and lethargic with skin rashes	normal appearance of the gastrointestinal tract	no significant abnormal findings	bound significantly stronger to Cal27 cells compared with mono-EGF-IT	5.05
